Laboratory results reported in patent US20130095068A1, “AGENT FOR TREATING HCV INFECTION” (priority 2010, published 2013).

system: LucNeo#2 replicon cells; test: Cytotoxicity, Alamar Blue in LucNeo#2 replicon cells; assay type: cell-based; details: 3.3 μM, 72 hours, percentage of solvent-treated group
Procedure: (§1) LucNeo#2 replicon cells cultured to confluency were recovered by trypsin treatment, and were spread on a collagen-coated plate at a density of 20,000 cells/mL. The cell culture was conducted in an incubator at 37° C., 5% CO2, with 10% FCS/DMEM (containing mixed solution of penicillin-streptomycin, G418 and a non-essential amino acid). After 24 hours, the cells were rinsed and a compound of formula (I) was added as Test compound to final concentrations of 3.3 μM or 10 μM. At 72 hours after addition of the Test compound, the cells of one plate were rinsed, the cells were lysed with M-PER, and the intracellular luciferase activity was measured using a Promega kit. An Alamar Blue solution was also added to cells cultured under the same conditions, and the cytotoxicity was examined.
(§2) The intracellular luciferase activity and the Alamar Blue signal for cytotoxicity at 72 hours after Test compound addition were shown in Table 3 as a percentage with respect to the solvent-treated group.

| Structure (SMILES) | Cytotoxicity (Alamar Blue signal) |
| --- | --- |
| COc1cc(/C=C2\CCCN([C@@H](CO)c3ccc(F)cc3)C2=O)ccc1-n1cnc(C)c1 [Test compound C, (E)-1-[(1R)-1-(4-fluorophenyl)-2-hydroxyethyl]-3-[3-methoxy-4-(4-methyl-1H-imidazol-1-yl)benzylidene]piperidin-2-one] | 101.00% |

same assay, conditions: 10 μM, 72 hours, percentage of solvent-treated group

| Structure (SMILES) | Cytotoxicity (Alamar Blue signal) |
| --- | --- |
| COc1cc(/C=C2\CCCN([C@@H](CO)c3ccc(F)cc3)C2=O)ccc1-n1cnc(C)c1 [Test compound C, (E)-1-[(1R)-1-(4-fluorophenyl)-2-hydroxyethyl]-3-[3-methoxy-4-(4-methyl-1H-imidazol-1-yl)benzylidene]piperidin-2-one] | 102.00% |

system: HCV subgenomic replicon (LucNeo#2 replicon cells); test: HCV replication inhibition in LucNeo#2 replicon cells, luciferase corrected by cell number (Alamar Blue); assay type: cell-based; details: Hepatitis C virus, 96 h, read-out: Inhibition (%) at 1 uM
Procedure: LucNeo#2 replicon cells, which were the HCV subgenomic replicon cells used in Test Example 2, were used to examine HCV replication inhibitory-activity, from which signals were corrected by using cell number.
LucNeo#2 replicon cells cultured to confluency were recovered by trypsin treatment, and were spread on a collagen-coated plate at a density of 1000 cells/well. The cell culture was conducted in an incubator at 37° C., 5% CO2, with 10% FBS/DMEM (containing mixed solution of penicillin-streptomycin and a non-essential amino acid). On the following day or the evening after confirmation of cell adhesion, a compound of formula (I) as the Test compound was added to final concentration of 1.0 to 1.3 μM. At 4 days after the Test compound addition, Alamar Blue diluted 5-fold with PBS(−) was added in an amount of 1/10 for measurement of the fluorescence, to determine the cell count. After the Alamar Blue measurement, the luminescence from intracellular luciferase activity was determined by adding substrate solution in an amount of 5/11 using a Promega kit.
The Alamar Blue activity and luciferase activity were determined by subtracting the values measured for wells without cells. Next, the luciferase activity value×1000 was divided by the value from Alamar Blue measurement, then, the total activity was defined as the value calculated without the Test compound, and the percentages of inhibition by the Test compound was calculated in respect to total activity and listed in Table 4.

| Structure (SMILES) | inhibition at 1 µM |
| --- | --- |
| COc1cc(/C=C2\CCCN([C@@H](C)c3ccc(F)cc3)C2=O)ccc1-n1cnc(C)c1 [compound 53] | 30.9% |

same assay, conditions: Hepatitis C virus, 96 h; 1 uM, 4 days, luciferase activity per Alamar Blue value; read-out: Inhibition (%) at 1 uM

| Structure (SMILES) | inhibition at 1 µM |
| --- | --- |
| COc1cc(/C=C/C(=O)NCc2ccc(Cl)cc2)ccc1-n1ccnc1 [compound 13] | 65.9% |
| CC(O)c1cc(/C=C/C(=O)NC2CCc3ccccc32)ccc1-n1ccnc1 (stereo not shown) [compound 14] | 73.4% |
| O=Cc1cc(/C=C/C(=O)NC2CCc3ccccc32)ccc1-n1ccnc1 (stereo not shown) [compound 15] | 73.3% |
| COc1cc(/C=C/C(=O)NCC2CCCCC2)ccc1-n1ccnc1 [compound 16] | 71.2% |
| COc1cc(/C=C/C(=O)NC2(c3ccccc3)CC2)ccc1-n1ccnc1 [compound 17] | 87.7% |
| Cc1cn(-c2ccc(/C=C/C(=O)NC3CCc4ccccc43)cc2Br)cn1 (stereo not shown) [compound 18] | 75.3% |
| Cc1cn(-c2ccc(/C=C/C(=O)NC3CCc4ccccc43)cc2Cl)cn1 (stereo not shown) [compound 19] | 75.4% |
| O=C(/C=C/c1ccc(-n2ccnc2)c(C(F)(F)F)c1)NC1CCc2ccccc21 (stereo not shown) [compound 20] | 76.7% |
| CC(=O)c1cc(/C=C/C(=O)NC2CCc3ccccc32)ccc1-n1ccnc1 (stereo not shown) [compound 21] | 81.9% |
| COc1cc(/C=C/C(=O)N(C)Cc2ccccc2)ccc1-n1ccnc1 [compound 22] | 66.3% |
| COc1cc(/C=C/C(=O)NC(Cc2ccccc2)c2ccccc2)ccc1-n1ccnc1 (stereo not shown) [compound 23] | 71.6% |
| Cc1cncn1-c1ccc(/C=C/C(=O)NC2CCc3ccccc32)cc1C#N (stereo not shown) [compound 25] | 83.5% |
| O=C(/C=C/c1ccc(-n2ccnc2)c(Cl)c1)NC1CCc2ccccc21 (stereo not shown) [compound 26] | 75.5% |
| COc1cc(/C=C/C(=O)NC2Cc3ccccc3C2)ccc1-n1ccnc1 [compound 27] | 69% |
| COc1cc(/C=C/C(=O)NCc2ccccc2)ccc1-n1ccnc1 [compound 28] | 70.5% |
| COc1cc(/C=C/C(=O)NCc2cccc(F)c2)ccc1-n1ccnc1 [compound 29] | 62.8% |
| COc1cc(/C=C\C(=O)NC2CCc3ccccc32)ccc1-n1ccnc1 (stereo not shown) [compound 30] | 66.4% |
| Cc1cc(/C=C/C(=O)NC2CCc3ccccc32)ccc1-n1ccnc1 (stereo not shown) [compound 31] | 71% |
| COc1cc(/C=C/C(=O)NC2CCc3ccccc32)ccc1-n1cncc1Cl (stereo not shown) [compound 32] | 71.8% |
| COc1cc(/C=C/C(=O)NC2CCCc3ccccc32)ccc1-n1ccnc1 (stereo not shown) [compound 33] | 86.8% |
| CS(=O)(=O)c1cc(/C=C/C(=O)NC2CCc3ccccc32)ccc1-n1ccnc1 (stereo not shown) [compound 34] | 70.2% |
| Cc1ncn(-c2ccc(/C=C/C(=O)NC3CCc4ccccc43)cc2F)c1C (stereo not shown) [compound 35] | 77.2% |
| CCC(NC(=O)/C=C/c1ccc(-n2cnc(C)c2)c(OC)c1)c1cccnc1 (stereo not shown) [compound 36] | 75.7% |
| COc1cc(/C=C/C(=O)NCc2ccccc2C(F)(F)F)ccc1-n1ccnc1 [compound 37] | 77.1% |
| COc1ccccc1CNC(=O)/C=C/c1ccc(-n2ccnc2)c(OC)c1 [compound 38] | 63.7% |

| Structure (SMILES) | inhibition at 1 µM |
| --- | --- |
| COc1cc(/C=C/C(=O)NCc2ccc(C(F)(F)F)cc2)ccc1-n1ccnc1 [compound 39] | 53.2% |
| COc1ccc(CNC(=O)/C=C/c2ccc(-n3ccnc3)c(F)c2)cc1 [compound 40] | 59.4% |
| COc1cc(/C=C/C(=O)NCCc2cccc(Cl)c2)ccc1-n1ccnc1 [compound 41] | 71.8% |
| COc1cc(/C=C/C(=O)NC(c2ccccc2)c2ccccc2)ccc1-n1ccnc1 [compound 42] | 75.8% |
| COCc1cn(-c2ccc(/C=C/C(=O)NC3CCc4ccccc43)cc2F)cn1 (stereo not shown) [compound 43] | 55.8% |
| CC(C)Oc1cc(/C=C/C(=O)NC2CCc3ccccc32)ccc1-n1ccnc1 (stereo not shown) [compound 44] | 64.6% |
| COc1cc(/C=C/C(=O)NNCc2ccccc2)ccc1-n1ccnc1 [compound 45] | 68.8% |
| COCc1cc(/C=C/C(=O)NC2CCc3ccccc32)ccc1-n1ccnc1 (stereo not shown) [compound 46] | 86.4% |
| Cc1cn(-c2ccc(/C=C/C(=O)NC3CCc4ccccc43)cc2OC2CCCC2)cn1 (stereo not shown) [compound 47] | 63.8% |
| COc1cc(/C=C/C(=O)NCCc2ccc(Cl)cc2)ccc1-n1ccnc1 [compound 48] | 61.3% |
| COc1cc(/C=C/C(=O)N(CCO)Cc2ccccc2)ccc1-n1cc(C)nc1C [compound 49] | 71.6% |
| COc1cc(/C=C/C(=O)N2CCC3(CC2)OCc2ccccc23)ccc1-n1cc(C)nc1C [compound 50] | 52.3% |
| COc1cc(/C=C/C(=O)N2C[C@H]2c2ccccc2)ccc1-n1cnc(C)c1 [compound 51] | 62.2% |
| COc1cc(/C=C/C(=O)N2CCC(n3c(=O)[nH]c4ccccc43)CC2)ccc1-n1ccnc1 [compound 52] | 51.4% |
| COc1cc(/C=C2\CCCN([C@@H](CO)c3ccc(F)cc3)C2=O)ccc1-n1cnc(C)c1 [compound 54] | 14.2% |
| COc1cc(/C=C2\CC[C@H]3COC[C@@H](c4cc(F)c(F)c(F)c4)N3C2=O)ccc1-n1cnc(C)c1 [compound 55] | 66.8% |
| COc1cc(/C=C2\CCN([C@@H](C)c3ccc(F)cc3)C2=O)ccc1-n1cnc(C)c1 [compound 56] | 65.8% |
| COc1cc(C#CC(=O)NC(C)c2ccccc2)ccc1-n1cnc(C)c1 (stereo not shown) [compound 58] | 64.6% |
| COc1cc(/C=C2\NC(=O)N(Cc3ccccc3)C2=O)ccc1-n1cnc(C)c1 [compound 59] | 51.9% |
| COc1cc(/C=C2/C[C@H]3CCC[C@H](c4ccc(F)c(F)c4)N3C2=O)ccc1-n1cnc(C)c1 [compound 60] | 50.5% |
| COc1cc(/C(F)=C(/C)C(=O)NC2CCc3ccccc32)ccc1-n1cnc(C)c1 (stereo not shown) [compound 61] | 50.5% |
| COc1cc(/C=C2\NC(=S)N(Cc3ccccc3)C2=O)ccc1-n1cnc(C)c1 [compound 62] | 68.2% |
| COc1cc(/C=C2\CCCN([C@H](C)c3ccc(C#N)s3)C2=O)ccc1-n1cnc(C)c1 [compound 63] | 70.7% |
| C/C(=C\C(=O)NC1CCc2ccccc21)c1ccc(-n2ccnc2)c(F)c1 (stereo not shown) [compound 64] | 78% |

system: HCV subgenomic replicon (LucNeo#2 replicon cells); test: Replicon assay, intracellular luciferase activity in LucNeo#2 replicon cells; assay type: cell-based, Hepatitis C virus; details: 3.3 μM, 72 hours, percentage of solvent-treated group
Text: The inhibitory-effect on HCV replication and the cytotoxicity of a compound of formula (I) of the invention were examined by a replicon assay method using different HCV subgenomic replicon cells from Example 1, specifically LucNeo#2 replicon cells. The LucNeo#2 replicon cells are reporter cells created with the same concept as the luc-ubi-neo/ET replicon cells used in Test Example 1, and are utilized for analysis of the RNA replication mechanism of HCV or anti-HCV drug evaluation, but the gene sequence differs from that of luc-ubi-neo/ET replicon cells (Biochem. Biophys. Res. Commun. 343 (2006) 879-884).
as §1, §2

| Structure (SMILES) | Luciferase activity |
| --- | --- |
| COc1cc(/C=C2\CCCN([C@@H](CO)c3ccc(F)cc3)C2=O)ccc1-n1cnc(C)c1 [Test compound C, (E)-1-[(1R)-1-(4-fluorophenyl)-2-hydroxyethyl]-3-[3-methoxy-4-(4-methyl-1H-imidazol-1-yl)benzylidene]piperidin-2-one] | 93.50% |

same assay, conditions: 10 μM, 72 hours, percentage of solvent-treated group

| Structure (SMILES) | Luciferase activity |
| --- | --- |
| COc1cc(/C=C2\CCCN([C@@H](CO)c3ccc(F)cc3)C2=O)ccc1-n1cnc(C)c1 [Test compound C, (E)-1-[(1R)-1-(4-fluorophenyl)-2-hydroxyethyl]-3-[3-methoxy-4-(4-methyl-1H-imidazol-1-yl)benzylidene]piperidin-2-one] | 55.00% |

same assay, conditions: LucNeo#2 replicon cells, 3.3 and 10 μM

| Structure (SMILES) | HCV replication inhibitory-activity (in words) |
| --- | --- |
| COc1cc(/C=C2\CCCN([C@@H](CO)c3ccc(F)cc3)C2=O)ccc1-n1cnc(C)c1 [Test compound C, (E)-1-[(1R)-1-(4-fluorophenyl)-2-hydroxyethyl]-3-[3-methoxy-4-(4-methyl-1H-imidazol-1-yl)benzylidene]piperidin-2-one] | potent HCV replication inhibitory-activity by reducing the luciferase activity in a dose-dependent manner |
